# Where two headings read alike, the source gives them in different places.
# Tests used:
# [1] = target: T1, Cyclin Dependent Kinase 1/Cyclin A2 (CDK1-cycA2) (Homo sapiens, UniProt P06493); test: CDK1-cycA2 TR-FRET (Lance) enzyme assay; type: biochemical; conditions: for Ki: enzymatic assay; for FS CDK1/CDK2: fold selectivity, enzymatic Ki ratio
# T1 construct: purchased ProQinase 0134-0054-1
# Procedure, shortened: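 Human CDK1/cyclin A2 pre-incubated 30 min with compound dose responses in 50 mM HEPES pH 7.5, 10 mM MgCl2, 2 mM TCEP, 0.05% BGG, 0.01% Brij 35. Reaction quenched with EDTA (15 mM final); TR-FRET readout using Eu-anti-phospho-4E-BP1, acceptor/donor ratio. Inhibition constants from Morrison equation.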
# [2] = target: T2, Cyclin Dependent Kinase 2/Cyclin E1 (CDK2-cycE1) (Homo sapiens, UniProt P24941); test: CDK2-cycE1 TR-FRET (LANCE) enzyme assay; type: biochemical; conditions: for FS CDK1/CDK2 / FS CDK4/CDK2: fold selectivity;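 on improvement in potency against CDK2 (Ki) over Comparator C: fold lower CDK2 Ki than comparator c (Ki 0.032 µM)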
# T2 construct: purchased ProQinase 0050-0055-1
# Procedure, shortened: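 Compound dose responses pre-incubated 30 min with CDK2-cycE1 in 50 mM HEPES pH 7.5, 10 mM MgCl2, 2 mM TCEP, 0.05% BGG, 0.01% Brij 35. Reaction quenched with EDTA (15 mM final), phospho-MBP detected by Eu-anti-phospho-MBP TR-FRET (acceptor/donor ratio). Inhibition constants from Morrison equation.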
# [3] = target: T3, Cyclin Dependent Kinase 4/Cyclin D3 (CDK4-cycD3) (Homo sapiens, UniProt P11802); test: CDK4-cycD3 TR-FRET (LANCE) enzyme assay; type: biochemical; conditions: for Ki: enzymatic assay; for FS CDK4/CDK2: fold selectivity, enzymatic Ki ratio
# T3 construct: purchased Carna Biosciences 04-105
# Procedure, shortened: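 Compound dose responses pre-incubated 30 min with enzyme mix in 50 mM HEPES pH 7.5, 10 mM MgCl2, 2 mM TCEP, 0.05% BGG, 0.01% Brij 35. Reaction quenched with EDTA (15 mM final); Eu-anti-phospho-4E-BP1 TR-FRET detection, acceptor/donor ratio. Ki derived by Morrison equation.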
# [4] = system: OVISE (JCRB1043, CCNE1-amplified); test: OVISE EdU incorporation cell proliferation assay (CDK2-dependent); type: cell-based; conditions: for IC50: read-out: CDK2 OVISE IC50; for FS SKOV-3/OVISE / FS p-H3/OVISE: fold selectivity; for FS p-H3/OVISE: cellular p-H3 IC50 over OVISE IC50
# Procedure, shortened: (§1)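 Cells in RPMI/10% FBS dosed with compound (0.5% DMSO final) for 16 h at 37 °C, 5% CO2, then EdU 0.5 μM final for 8 h before fixation and imaging. IC50 from 4-parameter logistic fit of EdU-positive cell fraction versus dose.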
# SKOV-3 (ATCC HTB-77) = test: SKOV-3 EdU incorporation cell proliferation assay (CDK4/6-dependent); type: cell-based; conditions: for IC50: Homo sapiens; for FS SKOV-3/OVISE: fold selectivity
# Procedure, shortened: as §1
# HCT116 cells = test: p-H3 HCT-116 mitotic release cell proliferation assay (cellular CDK1); type: cell-based; conditions: for IC50: Homo sapiens
# Experimental: Inhibition of cellular CDK1 determined by release of cells from nocodazole-induced mitotic arrest, as measured by decrease in phospho-Histone H3. Histone H3 (Ser 10) level is detected in cell lysates by producing a Fluorescence Resonance Energy Transfer (FRET) signal between two antibodies, Phospho-Histone H3 Cryptate (acting as the donor) and Phospho-Histone H3 d2 (acting as the acceptor).
# Plates are allowed to rest overnight at 37° C./5% CO2. The following morning, nocodazole is diluted in complete medium, and 5 μL is added to each test well and positive control well for a final concentration of 500 nM. Plates are then incubated for 16 hours at 37° C./5% CO2. […] 10 μL of diluted compound is then transferred to the cell plate (final DMSO concentration 0.1%). Cell plates are then incubated for 4 hours in 37° C. 5% CO2. A cell lysis buffer is prepared on ice using reagents from the Phospho-Histone H3 (Ser10) cellular kit (Cisbio-64HH3PEG). Supernatant is discarded from the cell plate and 80 μL of the supplemented cell lysis buffer (1:99 dilution of the Blocking Reagent and the 1× cell lysis buffer provided in the kit) is added to each of the experimental wells. The cell lysis reaction is allowed to proceed at room temperature while shaking vigorously for 30 minutes. The 384-well HTRF (Homogeneous Time Resolved Fluorescence) plate is prepared by adding 2 μL of each diluted antibody (Phospho-Histone H3 Cryptate antibody and Phospho-Histone H3 d2 antibody diluted 19:1 in a detection buffer) and 12 μL of the supplemented cell lysis buffer to each well in the HTRF plate. 4 μL of the cell lysate is added to the prepared HTRF plate which is then sealed and the reaction is allowed to proceed for a minimum of 2 hours at room temperature.
# [5] = Table O, enzymatic assay, read-out: CDK2 Ki
# [6] = Table O, enzymatic CDK1 Ki over CDK2 Ki
# [7] = Table O, enzymatic CDK4 Ki over CDK2 Ki
# [8] = read-out: CDK2 activity / potency (enzymatic assay)
# [9] = Table O, cellular SKOV-3 IC50 over OVISE IC50
# [10] = SK-OV-3, Table O, cellular assay, read-out: CDK4/6 SKOV-3 IC50
# [11] = HCT-116, Table O, cellular assay, read-out: CDK1 p-H3 IC50
# T1 sequence (P06493 whole entry): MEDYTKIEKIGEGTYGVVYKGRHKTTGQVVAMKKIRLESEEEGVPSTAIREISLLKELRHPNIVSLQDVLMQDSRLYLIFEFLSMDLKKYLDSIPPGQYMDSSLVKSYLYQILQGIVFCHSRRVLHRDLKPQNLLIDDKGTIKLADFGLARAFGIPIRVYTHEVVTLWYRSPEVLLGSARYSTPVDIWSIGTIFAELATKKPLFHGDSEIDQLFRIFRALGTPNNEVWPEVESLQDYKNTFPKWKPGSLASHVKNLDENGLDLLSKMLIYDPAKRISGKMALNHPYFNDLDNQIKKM
# T1 sequence (P20248 whole entry partner): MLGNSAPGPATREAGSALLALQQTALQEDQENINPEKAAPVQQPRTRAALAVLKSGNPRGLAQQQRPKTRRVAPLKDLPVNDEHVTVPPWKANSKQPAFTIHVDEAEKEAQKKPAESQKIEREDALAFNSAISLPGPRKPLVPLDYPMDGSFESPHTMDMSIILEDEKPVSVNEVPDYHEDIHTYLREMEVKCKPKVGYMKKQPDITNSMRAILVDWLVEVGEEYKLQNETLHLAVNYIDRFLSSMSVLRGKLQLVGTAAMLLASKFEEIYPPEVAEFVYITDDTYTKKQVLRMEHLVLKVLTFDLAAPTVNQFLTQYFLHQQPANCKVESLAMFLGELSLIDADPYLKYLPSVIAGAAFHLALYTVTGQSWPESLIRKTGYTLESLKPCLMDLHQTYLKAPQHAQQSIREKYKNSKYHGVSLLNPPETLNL
# T3 sequence (P11802 whole entry): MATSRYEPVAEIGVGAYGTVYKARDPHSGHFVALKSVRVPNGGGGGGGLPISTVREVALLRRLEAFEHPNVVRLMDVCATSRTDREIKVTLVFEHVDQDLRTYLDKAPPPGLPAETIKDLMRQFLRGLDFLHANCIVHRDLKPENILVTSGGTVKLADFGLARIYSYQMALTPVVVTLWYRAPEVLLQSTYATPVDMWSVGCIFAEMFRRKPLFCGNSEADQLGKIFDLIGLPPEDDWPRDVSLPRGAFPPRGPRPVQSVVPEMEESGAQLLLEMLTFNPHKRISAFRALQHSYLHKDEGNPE
# T3 sequence (P30281 whole entry partner): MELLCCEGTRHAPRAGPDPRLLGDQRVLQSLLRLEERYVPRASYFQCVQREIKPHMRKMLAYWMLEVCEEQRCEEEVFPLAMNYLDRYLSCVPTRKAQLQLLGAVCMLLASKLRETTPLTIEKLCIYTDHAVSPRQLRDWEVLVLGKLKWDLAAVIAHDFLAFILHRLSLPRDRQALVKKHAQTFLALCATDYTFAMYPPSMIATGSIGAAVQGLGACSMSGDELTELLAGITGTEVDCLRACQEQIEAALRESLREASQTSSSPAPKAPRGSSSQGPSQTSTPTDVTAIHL
Ki ([1]; Table O) [nM],"Ki [2, 5] [nM]","FS CDK1/CDK2 [2, 6]","FS CDK4/CDK2 [2, 7]",Ki ([3]; Table O) [nM],IC50 (SKOV-3 (ATCC HTB-77); [10]) [nM],IC50 (HCT116 cells; [11]) [nM],SMILES,"Ki [2, 8] [nM]","IC50 ([4]; Table O, cellular assay) [nM]","FS SKOV-3/OVISE [4, 9]",FS p-H3/OVISE ([4]; Table O),further results
72,2.5,29,60,150,2700,160,"CC1(NC(=O)O[C@@H]2CC[C@H](c3cc(Nc4cccnn4)n[nH]3)C2)CC1 [Example 3A, (1R,3S)-3-(3-(pyridazin-3-ylamino)-1H-pyrazol-5-yl)cyclopentyl (1-methylcyclopropyl)carbamate]",,130,21,1.2,
280,10,28,72,720,13000,1400,"CN1CCC(NC(=O)O[C@@H]2CC[C@H](c3cc(Nc4cccnn4)n[nH]3)C2)CC1 [Example 3E, (1R,3S)-3-(3-(pyridazin-3-ylamino)-1H-pyrazol-5-yl)cyclopentyl (1-methylpiperidin-4-yl)carbamate]",,420,31,3.3,
21,< 0.1,>33,>320,20,1300,23,"Cn1nc(Nc2cc([C@H]3CC[C@@H](OC(=O)NC45CC(C4)C5)C3)[nH]n2)ccc1=O [Example 6, (1R,3S)-3-(5-((1-methyl-6-oxo-1,6-dihydropyridazin-3-yl)amino)-1H-pyrazol-3-yl)cyclopentyl bicyclo[1.1.1]pentan-1-ylcarbamate]",≤ 1,16,81,1.4,

# More lines, now with the values behind:
SMILES,Ki ([1]; Table O) [nM],"Ki [2, 5] [nM]","FS CDK1/CDK2 [2, 6]","FS CDK4/CDK2 [2, 7]",Ki ([3]; Table O) [nM],IC50 (SKOV-3 (ATCC HTB-77); [10]) [nM],IC50 (HCT116 cells; [11]) [nM],"Ki [2, 8] [nM]","IC50 ([4]; Table O, cellular assay) [nM]","FS SKOV-3/OVISE [4, 9]",FS p-H3/OVISE ([4]; Table O),further results
"Cc1cc(Nc2cc([C@H]3CC[C@@H](OC(=O)NC(C)(C)C)C3)[nH]n2)nn(C)c1=O [Example 4D, (1R,3S)-3-(3-((1,5-dimethyl-6-oxo-1,6-dihydropyridazin-3-yl)amino)-1H-pyrazol-5-yl)cyclopentyl tert-butylcarbamate]",3.7,< 0.1,>59,>620,39,1500,9.2,≤ 1,26,58,0.35,"FS CDK1/CDK2 increased over Comparator D, (+) sign ([1]; Table R): (+); FS CDK1/CDK2 ([1]; Table R): > 59; FS CDK1/CDK2 ([1]; Table S): >59; Ki ([2]; Table R, enzymatic assay, read-out: CDK2 Ki): < 0.1 nM; CDK2 Ki fold change in potency versus Comparator D ([2]; Table R, in brackets after CDK2 Ki): 27 fold; Ki ([2]; Table S, enzymatic assay, read-out: CDK2 Ki): < 0.1 nM; CDK2 Ki fold change in potency versus Comparator E ([2]; Table S, in brackets after CDK2 Ki): 5.2 fold; FS CDK4/CDK2 increased over Comparator D, (+) sign ([3]; Table R): (+); FS CDK4/CDK2 ([3]; Table R): > 620; FS CDK4/CDK2 increased over Comparator E, (+) sign ([3]; Table S): (+); FS CDK4/CDK2 ([3]; Table S): > 620; CDK2 cell potency compared with Comparator E ([4]; CDK2 OVISE cellular assay data): more potent CDK2 cell inhibitors compared to Comparator E; CDK2 OVISE IC50 fold change in potency versus Comparator D ([4]; Table R, in brackets after OVISE IC50): 146 fold; CDK2 OVISE IC50 fold change in potency versus Comparator E ([4]; Table S, in brackets after OVISE IC50): 6.5 fold; selectivity for CDK2 over CDK4 compared with Comparator E (SKOV-3 (ATCC HTB-77); SKOV-3/OVISE fold-selectivity cellular assay data): increase in selectivity for CDK2 over CDK4; FS SKOV-3/OVISE increased over Comparator D, (+) sign (SKOV-3 (ATCC HTB-77); Table R): (+); FS SKOV-3/OVISE (SKOV-3 (ATCC HTB-77); Table R, cellular IC50 ratio): 58; FS SKOV-3/OVISE increased over Comparator E, (+) sign (SKOV-3 (ATCC HTB-77); Table S): (+); FS SKOV-3/OVISE (SKOV-3 (ATCC HTB-77); Table S, cellular IC50 ratio): 58"
"CC1(NC(=O)O[C@@H]2CC[C@H](c3cc(Nc4ccc(C#N)cn4)n[nH]3)C2)COC1 [Example 10E, (1R,3S)-3-(3-((5-cyanopyridin-2-yl)amino)-1H-pyrazol-5-yl)cyclopentyl (3-methyloxetan-3-yl)carbamate]",25,0.78,32,82,64,,,,,20,1.1,"IC50 [4]: 110 nM; IC50 (SKOV-3 (ATCC HTB-77); SK-OV-3, read-out: CDK4/6 SKOV-3 IC50): 2200 nM; IC50 (HCT116 cells; HCT-116, read-out: CDK1 p-H3 IC50): 120 nM"
"Cc1nc(C(=O)N(C)C)ccc1Nc1cc([C@H]2CC[C@@H](OC(=O)NC3(C)CC3)C2)[nH]n1 [Example 7, (1R,3S)-3-(3-((6-(dimethylcarbamoyl)-2-methylpyridin-3-yl)amino)-1H-pyrazol-5-yl)cyclopentyl (1-methylcyclopropyl)carbamate]",23,0.36,64,110,38,3800,50,≤ 1,58,66,0.86,
"Cc1nc(C#N)ccc1Nc1cc([C@H]2CC[C@@H](OC(=O)NC(C)C)C2)[nH]n1 [Example 2Z, (1R,3S)-3-(3-((6-cyano-2-methylpyridin-3-yl)amino)-1H-pyrazol-5-yl)cyclopentyl isopropylcarbamate]",550,5,110,260,1300,18000,410,,250,72,1.6,"increased fold-selectivity CDK1/CDK2 over Comparator C ([2]; Table Q, (+) sign after FS CDK1/CDK2): (+) (The (+) sign in Table Q signifies desirable increased fold-selectivity of the exemplary compounds over Comparator C); increased fold-selectivity CDK4/CDK2 over Comparator C ([2]; Table Q, (+) sign after FS CDK4/CDK2): (+) (The (+) sign in Table Q signifies desirable increased fold-selectivity of the exemplary compounds over Comparator C); Ki ([2]; Table Q, enzymatic assay, read-out: CDK2 Ki): 5 nM; FS CDK1/CDK2 ([2]; Table Q, enzymatic): 110; FS CDK4/CDK2 ([2]; Table Q, enzymatic): 260; improvement in potency against CDK2 (Ki) over Comparator C ([2]; Table Q, in brackets after CDK2 Ki, Comparator C 0.032 μM): 6.4 fold; increased fold-selectivity SKOV-3/OVISE over Comparator C ([4]; Table Q, (+) sign after FS SKOV-3/OVISE): (+) (The (+) sign in Table Q signifies desirable increased fold-selectivity of the exemplary compounds over Comparator C); FS SKOV-3/OVISE ([4]; Table Q, cellular): 72; improvement in CDK2 OVISE cell potency over Comparator C ([4]; Table Q, in brackets after OVISE IC50, Comparator C 5.5 μM): 22 fold; IC50 (SKOV-3 (ATCC HTB-77); SK-OV-3, Table Q, cellular assay, read-out: CDK4/6 SKOV-3 IC50): 18000 nM"
"CC(C)(C)NC(=O)O[C@@H]1CC[C@H](c2cc(NC(=O)Cc3ccnnc3)n[nH]2)C1 [Comparator A, reference compound]",,,,,,,,0.17,,,,"Ki ([1]; Table P): 9.1 nM; FS CDK1/CDK2 ([1]; Table P): 54; Ki ([3]; Table P): 38 nM; FS CDK4/CDK2 ([3]; Table P): 224; IC50 ([4]; cellular assay, Table P): 40 nM; IC50 (SKOV-3 (ATCC HTB-77); SK-OV-3, cellular assay, Table P, read-out: CDK4/6 SKOV-3 IC50): 1700 nM; FS SKOV-3/OVISE (SKOV-3 (ATCC HTB-77); cellular IC50 ratio (CDK4/6 over CDK2), Table P): 43; pH3/OVISE fold selectivity (CDK1 over CDK2, cellular assay data) (HCT116 cells): 0.78 fold; IC50 (HCT116 cells; HCT-116, cellular assay, Table P, read-out: CDK1 p-H3 IC50): 31 nM; FS p-H3/OVISE (HCT116 cells; fold selectivity, cellular IC50 ratio (CDK1 over CDK2), Table P): 0.78"
